Entries after “also recorded” stand apart in the source; their conditions may differ.
Tests used:
[1] = tested on: thyroid cancer cells TPC-1; experiment: MTT antiproliferative assay; assay type: cell-based
Description: Thyroid cancer cells TCP-1 were provided by Wuhan Servicebio Co., Ltd. TCP-1 cells are cultured in RPMI-1640 medium supplemented with 10% foetal bovine serum (FBS), 100 U/mL penicillin, and 0.1 mg/mL streptomycin. All cells are maintained in a humidified incubator at 37 °C with 5% CO2.
The TCP-1 cell line is seeded into a 96-well plate and incubated under conditions of 37 °C and 5% CO2. After the cells adhere, different concentrations of compounds are added and the incubation continues for 48 h under the same conditions. Subsequently, MTT reagent is added to the medium and the incubation is continued for an additional 4 h at 37 °C. After the incubation, the medium is aspirated, and 150 μL of DMSO solution is added to dissolve the purple-blue crystals by shaking. The absorbance of the solution is measured at a wavelength of 490 nm. The IC50 value of the compounds is calculated using SPSS software version 20.0.

FAK [2] = molecular target: T1, FAK (Homo sapiens, UniProt Q05397); experiment: Kinase inhibition assay (Kinase-Glo Plus); assay type: biochemical; conditions: 10 µM ATP
T1 sequence (Q05397 whole entry, species assumed): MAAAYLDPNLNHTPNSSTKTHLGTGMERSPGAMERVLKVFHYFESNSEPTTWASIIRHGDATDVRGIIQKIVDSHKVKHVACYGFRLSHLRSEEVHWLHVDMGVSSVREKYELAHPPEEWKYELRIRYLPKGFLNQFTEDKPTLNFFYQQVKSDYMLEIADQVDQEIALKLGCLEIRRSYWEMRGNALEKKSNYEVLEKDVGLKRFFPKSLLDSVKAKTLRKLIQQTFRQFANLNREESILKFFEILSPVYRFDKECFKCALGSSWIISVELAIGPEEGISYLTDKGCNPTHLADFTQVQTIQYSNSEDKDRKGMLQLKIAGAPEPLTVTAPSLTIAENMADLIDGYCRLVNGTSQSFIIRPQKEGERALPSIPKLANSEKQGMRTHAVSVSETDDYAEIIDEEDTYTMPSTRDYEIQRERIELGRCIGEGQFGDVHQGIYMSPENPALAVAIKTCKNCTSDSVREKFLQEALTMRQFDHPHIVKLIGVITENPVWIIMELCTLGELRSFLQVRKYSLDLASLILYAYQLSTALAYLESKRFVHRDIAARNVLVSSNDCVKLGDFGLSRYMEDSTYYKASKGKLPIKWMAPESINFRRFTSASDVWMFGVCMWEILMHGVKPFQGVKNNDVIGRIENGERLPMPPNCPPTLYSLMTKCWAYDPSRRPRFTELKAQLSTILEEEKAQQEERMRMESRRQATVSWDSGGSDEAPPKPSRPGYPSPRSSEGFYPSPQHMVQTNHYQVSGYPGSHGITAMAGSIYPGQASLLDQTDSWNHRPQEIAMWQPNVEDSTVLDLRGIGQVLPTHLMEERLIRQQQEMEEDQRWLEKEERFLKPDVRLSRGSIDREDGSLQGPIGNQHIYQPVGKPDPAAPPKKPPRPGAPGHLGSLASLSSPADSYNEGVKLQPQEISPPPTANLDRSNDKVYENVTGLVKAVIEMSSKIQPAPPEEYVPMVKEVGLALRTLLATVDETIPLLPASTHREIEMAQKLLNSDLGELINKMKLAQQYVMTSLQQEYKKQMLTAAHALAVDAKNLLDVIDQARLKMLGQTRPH
Excerpt: It measures kinase activity by quantitating the amount of ATP remaining in solution following a kinase reaction. The luminescent signal from the assay is correlated with the amount of ATP present and is inversely correlated with the amount of kinase activity.

ALK = ALK (Homo sapiens, UniProt Q9UM73); experiment: Kinase inhibition assay (Kinase-Glo Plus); assay type: biochemical; conditions: Figure 3A; 10 µM ATP; read-out: IC50 (nmol/L) ALK
Sequence of ALK (Q9UM73 19-1620, species assumed): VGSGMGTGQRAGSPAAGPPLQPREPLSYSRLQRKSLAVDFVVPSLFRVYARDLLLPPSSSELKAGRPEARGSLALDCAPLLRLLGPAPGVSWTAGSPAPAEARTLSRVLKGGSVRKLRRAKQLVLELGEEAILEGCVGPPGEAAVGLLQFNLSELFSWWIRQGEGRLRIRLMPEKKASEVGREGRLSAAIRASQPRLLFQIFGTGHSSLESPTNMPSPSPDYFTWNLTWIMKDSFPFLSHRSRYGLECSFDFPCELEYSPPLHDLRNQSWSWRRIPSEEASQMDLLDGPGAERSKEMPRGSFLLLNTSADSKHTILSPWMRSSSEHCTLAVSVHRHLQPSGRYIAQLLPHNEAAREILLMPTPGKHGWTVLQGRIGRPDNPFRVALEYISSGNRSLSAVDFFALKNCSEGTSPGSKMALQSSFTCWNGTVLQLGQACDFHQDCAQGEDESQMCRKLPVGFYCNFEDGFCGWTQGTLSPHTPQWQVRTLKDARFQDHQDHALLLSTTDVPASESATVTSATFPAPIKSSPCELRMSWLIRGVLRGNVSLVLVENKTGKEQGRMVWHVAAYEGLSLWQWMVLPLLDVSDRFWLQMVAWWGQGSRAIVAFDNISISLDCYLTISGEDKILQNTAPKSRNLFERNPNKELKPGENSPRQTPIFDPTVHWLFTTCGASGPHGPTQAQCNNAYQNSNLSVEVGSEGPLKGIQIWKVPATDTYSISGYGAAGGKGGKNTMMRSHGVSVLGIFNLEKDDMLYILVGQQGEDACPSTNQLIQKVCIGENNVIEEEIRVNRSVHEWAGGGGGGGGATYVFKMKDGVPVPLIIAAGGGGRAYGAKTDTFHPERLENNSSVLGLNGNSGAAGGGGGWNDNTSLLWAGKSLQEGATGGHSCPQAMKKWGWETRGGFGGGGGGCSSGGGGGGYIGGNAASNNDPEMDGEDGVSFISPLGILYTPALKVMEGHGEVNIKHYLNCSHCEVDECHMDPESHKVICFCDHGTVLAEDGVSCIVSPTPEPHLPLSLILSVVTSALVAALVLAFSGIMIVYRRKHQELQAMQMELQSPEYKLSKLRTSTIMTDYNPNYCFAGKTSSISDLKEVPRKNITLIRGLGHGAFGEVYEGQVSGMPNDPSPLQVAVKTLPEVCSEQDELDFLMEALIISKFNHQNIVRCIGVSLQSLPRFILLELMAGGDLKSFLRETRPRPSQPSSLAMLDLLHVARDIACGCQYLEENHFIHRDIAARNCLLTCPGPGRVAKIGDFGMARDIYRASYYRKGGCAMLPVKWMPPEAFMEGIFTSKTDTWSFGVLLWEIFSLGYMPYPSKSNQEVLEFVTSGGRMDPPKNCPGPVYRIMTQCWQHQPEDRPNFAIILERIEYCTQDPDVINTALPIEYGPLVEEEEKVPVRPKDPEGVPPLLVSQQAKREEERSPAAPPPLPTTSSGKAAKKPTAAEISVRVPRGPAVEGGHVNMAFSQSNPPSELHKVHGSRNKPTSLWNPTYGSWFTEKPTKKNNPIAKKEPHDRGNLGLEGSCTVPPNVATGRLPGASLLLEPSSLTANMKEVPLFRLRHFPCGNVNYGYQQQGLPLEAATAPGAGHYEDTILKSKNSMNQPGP
Description: (§1) The 50 µl reaction mixture contains 40 mM Tris, pH 7.4, 10 mM MgCl2, 0.1 mg/ml BSA, 1 mM DTT, 10 µM ATP, Kinase and the enzyme substrate. The compound was diluted in 10% DMSO and 5 µl of the dilution was added to a 50 µl reaction so that the final concentration of DMSO is 1% in all of the reactions. The assay was performed using a Kinase-Glo Plus luminescence kinase assay kit. It measures kinase activity by quantitating the amount of ATP remaining in solution following a kinase reaction. The luminescent signal from the assay is correlated with the amount of ATP present and is inversely correlated with the amount of kinase activity. The IC50 values were calculated using nonlinear regression with normalised dose-response fit using Prism GraphPad software.

EGFR = EGFR (Homo sapiens, UniProt P00533); experiment: Kinase inhibition assay (Kinase-Glo Plus); assay type: biochemical; conditions: Figure 3A; 10 µM ATP; read-out: IC50 (nmol/L) EGFR
Sequence of EGFR (P00533 25-1210, species assumed): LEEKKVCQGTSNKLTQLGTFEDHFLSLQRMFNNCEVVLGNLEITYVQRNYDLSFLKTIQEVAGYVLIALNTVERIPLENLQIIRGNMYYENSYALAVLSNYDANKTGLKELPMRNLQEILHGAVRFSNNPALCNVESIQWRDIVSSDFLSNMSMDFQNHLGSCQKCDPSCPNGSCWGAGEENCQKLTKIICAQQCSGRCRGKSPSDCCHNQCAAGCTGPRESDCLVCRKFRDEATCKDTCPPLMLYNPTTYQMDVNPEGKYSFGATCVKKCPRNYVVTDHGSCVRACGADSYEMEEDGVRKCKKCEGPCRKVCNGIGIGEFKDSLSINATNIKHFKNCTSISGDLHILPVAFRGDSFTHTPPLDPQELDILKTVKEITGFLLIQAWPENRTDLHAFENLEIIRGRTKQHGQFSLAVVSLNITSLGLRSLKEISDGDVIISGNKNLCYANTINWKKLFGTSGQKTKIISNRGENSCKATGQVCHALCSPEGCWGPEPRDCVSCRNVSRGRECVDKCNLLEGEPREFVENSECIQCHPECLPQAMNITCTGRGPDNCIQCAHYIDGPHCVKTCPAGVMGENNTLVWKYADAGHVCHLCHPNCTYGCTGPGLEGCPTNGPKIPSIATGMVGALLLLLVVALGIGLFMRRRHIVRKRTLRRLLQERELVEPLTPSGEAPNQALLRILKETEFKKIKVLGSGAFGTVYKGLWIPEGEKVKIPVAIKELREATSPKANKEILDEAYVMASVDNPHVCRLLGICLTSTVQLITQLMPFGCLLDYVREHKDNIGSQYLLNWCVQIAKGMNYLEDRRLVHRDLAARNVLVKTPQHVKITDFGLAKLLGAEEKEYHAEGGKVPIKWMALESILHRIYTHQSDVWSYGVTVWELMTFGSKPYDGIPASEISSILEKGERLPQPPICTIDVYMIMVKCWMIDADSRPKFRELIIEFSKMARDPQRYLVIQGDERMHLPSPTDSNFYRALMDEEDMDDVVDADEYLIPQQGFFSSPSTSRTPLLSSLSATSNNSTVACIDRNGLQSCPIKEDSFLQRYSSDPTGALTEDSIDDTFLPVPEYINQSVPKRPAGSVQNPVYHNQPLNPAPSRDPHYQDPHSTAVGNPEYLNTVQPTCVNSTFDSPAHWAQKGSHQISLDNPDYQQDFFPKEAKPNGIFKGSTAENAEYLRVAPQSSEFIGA
Description: as §1

ROS1 = ROS1 (Homo sapiens, UniProt P08922); experiment: Kinase inhibition assay (Kinase-Glo Plus); assay type: biochemical; conditions: Figure 3A; 10 µM ATP; read-out: IC50 (nmol/L) ROS1
Sequence of ROS1 (P08922 1883-2347 limits assumed): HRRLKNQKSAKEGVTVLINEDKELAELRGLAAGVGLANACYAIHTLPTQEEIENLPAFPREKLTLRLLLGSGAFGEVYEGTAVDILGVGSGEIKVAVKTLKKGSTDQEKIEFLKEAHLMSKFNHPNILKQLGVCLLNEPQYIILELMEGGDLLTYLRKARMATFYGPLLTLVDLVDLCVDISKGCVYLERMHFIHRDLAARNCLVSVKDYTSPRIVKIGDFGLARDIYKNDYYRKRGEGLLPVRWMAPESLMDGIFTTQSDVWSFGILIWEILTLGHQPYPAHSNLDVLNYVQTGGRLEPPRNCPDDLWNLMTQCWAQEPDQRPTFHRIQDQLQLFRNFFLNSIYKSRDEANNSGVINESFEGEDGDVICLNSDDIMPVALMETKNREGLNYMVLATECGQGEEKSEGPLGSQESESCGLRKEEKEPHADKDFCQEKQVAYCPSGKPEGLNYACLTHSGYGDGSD
Description: as §1

FAK [3] = molecular target: T1, FAK; experiment: Western blot of FAK and its phosphorylation sites in TPC-1 cells; assay type: cell-based; conditions: TPC-1 cells, 50, 100 and 200 nmol/L, 48 h
Description: Different concentrations of compound 14f are applied to TCP-1 cells for 48 h, after which the cells are collected and lysed in RIPA lysis buffer (Solarbio, R0010). Protein concentration is determined using the BCA Protein Concentration Assay Kit (Solarbio, PC0020). Proteins were denatured using 4X SDS-PAGE loading buffer (Solarbio, P1016) at 100 °C for 10 min. The denatured protein samples are separated by SDS-PAGE electrophoresis. Proteins are transferred from the gel to nitrocellulose (NC) membrane (Pall Corporation, P/N 66485) and blocked with 5% non-fat milk for 1 h at room temperature. After washing with TBST, the primary antibody is added and incubated overnight at 4 °C. The membrane is washed with TBST and then incubated with the secondary antibody at room temperature for 1–2 h. The membrane is washed again with TBST, and the protein bands are visualised using an ECL (Solarbio, PE0010) ultra-sensitive luminescent reagent, followed by imaging with a chemiluminescence imaging analyser (Cytiva, […] ImageQuant 800, JPN). The ladder used for Western Blot experiments was purchased from Thermo Scientific (Thermo Scientific, catalog number:26616). […]

[4] = tested on: thyroid cancer cells TPC-1; experiment: EdU staining assay; assay type: cell-based; conditions: TPC-1 cells, 48 h
Description: TCP-1 cells are treated with compound 14f, followed by the addition of an equal volume of 1X EdU working solution to the drug-containing medium, and incubated under conditions of 37 °C and 5% CO2 for 4 h. After incubation, the cells are fixed with 4% paraformaldehyde for 15 min. The fixative is then removed, and the cells are permeabilized with PBS containing 0.3% Triton X-100 at room temperature. After washing, the Click reaction working solution is added and incubated at 37 °C for 30 min. The cells are then washed and stained with a prepared Hoechst staining solution for 10 min to stain the cell nuclei. After staining, the staining solution is removed, the cells are washed, and images are captured and saved using a fluorescence microscope.

TPC-1 cells [5] = experiment: Colony formation assay; assay type: cell-based; conditions: 5-day treatment
Description: TCP-1 cells are plated at a density of 10,000 to 20,000 cells per well in a 6-well plate. After cell adhesion, the cells are treated with different concentrations of compound 14f and cultured for 5 days in an incubator. At the end of the culture period, the medium is aspirated, and the cells are washed three times with PBS. The cells are then fixed with 4% paraformaldehyde for 20 min at room temperature. After fixation, the fixative is removed, and the cells are stained with 0.1% crystal violet at room temperature for 20 min. Following staining, the cells are rinsed with PBS until the purple colour is completely washed away, and then air-dried for image acquisition.

TPC-1 cells [6] = experiment: Cell cycle distribution; assay type: cell-based; conditions: 48-h treatment
[7] = tested on: thyroid cancer cells TPC-1; experiment: Wound healing assay; assay type: cell-based; conditions: TPC-1 cells, various durations
Description: TCP-1 cells are seeded into a 6-well cell culture plate and cultured in an incubator at 37 °C with 5% CO2. Once the cells uniformly cover the bottom of the well, a vertical line is drawn in the centre of each well to mark the initial scratch. Fresh medium is replaced and different concentrations of 14f are added. Photographs are taken to document the healing at 0 h, 24 h, 36 h and 48 h post-scratch. Images are processed using ImageJ software. Data analysis is performed using GraphPad Prism software version 8.0.

[8] = tested on: thyroid cancer cells TPC-1; experiment: Transwell migration assay; assay type: cell-based; conditions: TPC-1 cells, 48 h
Description: A 24-well plate is filled with 500 μL of RPMI-1640 medium containing 20% serum per well, and Transwell chambers are placed in the wells. TCP-1 cells are resuspended in serum-free medium and mixed with compound 14f, then added to the upper chamber of the Transwell chambers. The 24-well plates are incubated at 37 °C with 5% CO2 for 48 h. After incubation, the plates are removed, and the chambers are immersed in 4% paraformaldehyde and fixed at room temperature for 10 min. Following fixation, 0.1% crystal violet staining solution is added to the 24-well plates, and the chambers are stained at room temperature for 30 min. After staining, the plates are washed, the upper layer of cells is gently wiped off with a cotton swab, and the chambers are air-dried. Images are captured using a microscope.

CNC(=O)c1ccccc1Nc1nc(N/N=C/c2ccc(F)cc2)ncc1Cl [14f, (E)-2-((5-chloro-2–(2-(4-fluorobenzylidene)hydrazineyl)pyrimidin-4-yl)amino)-N-methylbenzamide]
IC50 ([1]; Homo sapiens, TPC1, 48 h, MTT assay, 48 h, average with SD (n = 3, duplicate), read-out: IC50 (μM), antiproliferative activity against thyroid cancer cells TPC-1): 0.113 ± 0.003 µM | times more potent than TAE-226 in TPC-1 cells ([1]; ratio of IC50 values, TPC-1 cells): approximately 8.57 times | IC50 (FAK [2]): 35 nM | IC50 (ALK): 285 nmol/L | IC50 (EGFR): > 1000 nmol/L | IC50 (ROS1): 593 nmol/L | expression level of FAK (FAK [3]): did not affect the expression level of FAK; also recorded: no significant changes | number of cells positive for EdU [4]: significant reduction | concentration from which colony formation is discernibly inhibited (TPC-1 cells [5]): ≥ 100 nmol/L | cell cycle distribution (TPC-1 cells [6]): pronounced G1 phase arrest | wound healing (cell migration) [7]: significant inhibitory effect on cell migration | number of cells that traversed through the membrane [8]: significant reduction | melting point: 176.1 to 177.8 °C
